Assay results taken from US8664210B2, “Aminooxime derivatives of 2- and/or 4-substituted androstanes and androstenes as medicaments for cardiovascular disorders” (priority 2007, dated 2014).
Where a name gives a salt, the structure may show the parent alone. Read-outs that look alike come from different tables or passages of the source.

Key:
Na+,K+-ATPase = Na+,K+-ATPase (Canis lupus familiaris, UniProt P50997); conditions: relative to compound 22b; cited from earlier work
[1] = biological target: Dog Kidney Na+, K+-ATPase (Canis lupus familiaris, UniProt P50997); test: Dog kidney Na+,K+-ATPase inhibition (hydrolysis of 32P-ATP); type: biochemical
anesthetized guinea-pig = test: inotropic effect and lethal dose in anesthetized guinea-pig (infusion over 90 minutes); type: in vivo; conditions: for Lethal dose/ED80: calculated in the died animals
Procedure: The inotropic activity is shown as maximum increase in contractile force (Emax measured as +dP/dTmax), dose inducing maximum positive inotropic effect (EDmax), inotropic potency (ED80, dose increasing +dP/dTmax by 80%); the toxicity as the ratio between lethal dose and inotropic potency (calculated in the died animals). All animals, previously anesthetized, were administered the drug through infusion over a 90 minute period.

[2] = anesthetized guinea-pig, infusion over 90 min
[3] = dog kidney enzyme, read-out: Na+, K+-ATPase Inhibition IC50

In the case of `C[C@@H]1/C(=N/OCCN)CC[C@@]2(C)C1C(=O)C[C@@H]1[C@@H]2CC[C@]2(C)C(=O)CC[C@@H]12.Cl` (stereo partly drawn) [Compd. 22d, (E)-3-(2-aminoethoxyimino)-4α-methylandrostan-6,17-dione hydrochloride], the “times less active than des-methyl compound 22b” value (Na+,K+-ATPase) is listed as 30, the IC50 [1] is listed as 6000 nM and the Dead/treated (anesthetized guinea-pig; [2]) is listed as 0/3. For the same compound, the “ED80 (inotropic potency, dose increasing +dP/dTmax by 80%)” value (anesthetized guinea-pig; [2]) was 23.0 µmol/kg, the “EDmax (dose inducing maximum positive inotropic effect)” value (shortened to “EDmax”) (anesthetized guinea-pig; [2]) was 149 µmol/kg and the “Emax % increase in +dP/dTmax (maximum increase in contractile force)” value (“Emax % increase in +dP/dTmax” below) (anesthetized guinea-pig; [2]) was 190%. For the same compound, the Maximum dose infused (anesthetized guinea-pig; [2]) was 250.3 µmol/kg and the “Notes (toxic signs during infusion)” value (anesthetized guinea-pig; anesthetized guinea-pig, infusion over 90 min, hydrochloride) was “tremors and contractions appeared during the infusion”.
For `C[C@H]1O[C@@H](O[C@H]2[C@@H](O)C[C@H](O[C@H]3[C@@H](O)C[C@H](O[C@H]4CC[C@@]5(C)[C@H](CC[C@@H]6[C@@H]5C[C@@H](O)[C@]5(C)[C@@H](C7=CC(=O)OC7)CC[C@]65O)C4)O[C@@H]3C)O[C@@H]2C)C[C@H](O)[C@@H]1O` [Digoxin, digoxin], the Dead/treated (anesthetized guinea-pig; [2]) was 10/10, the “ED80 (inotropic potency, dose increasing +dP/dTmax by 80%)” value (anesthetized guinea-pig; [2]) was 0.29 µmol/kg and the “EDmax” value (anesthetized guinea-pig; [2]) was 0.65 µmol/kg. The “Emax % increase in +dP/dTmax” value (anesthetized guinea-pig; [2]) was 158%, the Maximum dose infused (anesthetized guinea-pig; [2]) was 1.16 µmol/kg and the “Lethal dose/ED80” value (anesthetized guinea-pig) was 4.0.
In the case of `CC1=C2CC[C@H]3[C@@H]4CC[C@H](O)[C@@]4(C)CC[C@@H]3[C@@]2(C)CC/C1=N\OCCN` [I-aa, (E)-3-(2-Aminoethoxyimino)-4-methylandrost-4-en-17β-ol hydrochloride], the IC50 [1] is reported as 4900 nM.
Work on `CC1(C)/C(=N/OCCN)CC[C@@]2(C)C1CC[C@H]1[C@@H]3CC[C@H](O)[C@@]3(C)CC[C@@H]12` (stereo partly drawn) [I-ag, (E)-3-(2-Aminoethoxyimino)-4,4-dimethylandrostan-17β-ol fumarate] yielded an IC50 [1] of 3900 nM.
Work on `CC1(C)/C(=N/OCCCN)CC[C@@]2(C)C1CC[C@H]1[C@@H]3CC[C@H](O)[C@@]3(C)CC[C@@H]12` (stereo partly drawn) [I-ai, (E)-3-(3-Aminopropoxyimino)-4,4-dimethylandrostan-17β-ol fumarate] yielded an IC50 [1] of 1900 nM.
For `CNCCCON=C1CCC2(C)C3CCC4(C)C(O)CCC4C3CCC2C1(C)C` (stereo not drawn) [I-aj, (E)-3-(3-N-Methylaminopropoxyimino)-4,4-dimethylandrostan-17β-ol fumarate], the IC50 [1] was 1400 nM.
Work on `CC1(C)/C(=N/O[C@@H]2CCNC2)CC[C@@]2(C)C1CC[C@H]1[C@@H]3CC[C@H](O)[C@@]3(C)CC[C@@H]12` (stereo partly drawn) [I-ak, (E)-3-[3-(R)-Pyrrolidinyl]oxyimino-4,4-dimethylandrostan-17β-ol fumarate] yielded an IC50 [1] of 2000 nM.
Compound `CC1(C)/C(=N/O[C@H]2CCNC2)CC[C@@]2(C)C1CC[C@H]1[C@@H]3CC[C@H](O)[C@@]3(C)CC[C@@H]12` (stereo partly drawn) [I-al, (E)-3-[3-(S)-Pyrrolidinyl]oxyimino-4,4-dimethylandrostan-17β-ol fumarate] has an IC50 [1] of 2600 nM.
Work on `CC1(C)/C(=N/OCCN)CC[C@@]2(C)C1CC[C@@H]1[C@@H]2CC[C@]2(C)C(=O)CC[C@@H]12` (stereo partly shown) [I-am, (E)-3-(2-Aminoethoxyimino)-4,4-dimethylandrostan-17-one fumarate] yielded an IC50 [1] of 1700 nM.
With `CC1(C)/C(=N/OCCCN)CC[C@@]2(C)C1CC[C@@H]1[C@@H]2CC[C@]2(C)C(=O)CC[C@@H]12` (stereo partly shown) [I-an, (E)-3-(3-Aminopropoxyimino)-4,4-dimethylandrostan-17-one fumarate] the IC50 [1] was 1500 nM.
In the case of `CC1(C)/C(=N/O[C@@H]2CCNC2)CC[C@@]2(C)C1CC[C@@H]1[C@@H]2CC[C@]2(C)C(=O)CC[C@@H]12` (stereo partly drawn) [I-ao, (E)-3-[3-(R)-Pyrrolidinyl]oxyimino-4,4-dimethylandrostan-17-one fumarate], the IC50 [1] is reported as 1300 nM.
`CC1(C)/C(=N/OCCN)CC[C@@]2(C)C1C(=O)C[C@@H]1[C@@H]2CC[C@]2(C)C(=O)CC[C@@H]12` (stereo partly shown) [I-at, (E)-3-(2-Aminoethoxyimino)-4,4-dimethylandrostan-6,17-dione fumarate] gave an IC50 [1] of 1700 nM.
For `CC1(C)/C(=N/O[C@@H]2CCNC2)CC[C@]2(C)[C@H]3CC[C@]4(C)C(=O)CC[C@H]4[C@@H]3CC(=O)[C@@]12O` [I-au, (E)-3-[3-(R)-Pyrrolidinyl]oxyimino-4,4-dimethyl-5α-hydroxyandrostan-6,17-dione fumarate], the IC50 [1] was 2200 nM.
In the case of `C[C@]12CC[C@H]3[C@@H](CC=C4C5(CC5)/C(=N/OCCN)CC[C@@]43C)[C@@H]1CC[C@@H]2O` [I-bb, (E)-3-(2-Aminoethoxyimino)-4-(spirocyclopropane)-5-androsten-17β-ol fumarate], the IC50 [1, 3] is reported as 1500 nM.
`C[C@]12CC[C@H]3[C@@H](CC=C4C5(CC5)/C(=N/O[C@@H]5CCNC5)CC[C@@]43C)[C@@H]1CC[C@@H]2O` [I-bc, (E)-3-[3-(R)-Pyrrolidinyl]oxyimino-4-spirocyclopropane androst-5-en-17β-ol fumarate] showed an IC50 [1, 3] of 1800 nM.
For `CC[C@H]1/C(=N/OCCN)CC[C@@]2(C)C1C(=O)C[C@@H]1[C@@H]2CC[C@]2(C)C(=O)CC[C@@H]12` (stereo partly drawn) [I-bd, (E)-3-(2-Aminoethoxyimino)-4β-ethylandrostan-6,17-dione hydrochloride], the IC50 [1] was 130 nM.
In the case of `CC[C@H]1/C(=N/O[C@@H]2CCNC2)CC[C@@]2(C)C1C(=O)C[C@@H]1[C@@H]2CC[C@]2(C)C(=O)CC[C@@H]12.Cl` (stereo partly drawn) [I-be, (E)-3-[3-(R)-Pyrrolidinyl]oxyimino-4β-ethylandrostan-6,17-dione hydrochloride], the IC50 [1] is reported as 49 nM, the Dead/treated (anesthetized guinea-pig; [2]) is reported as 3/3 and the “ED80 (inotropic potency, dose increasing +dP/dTmax by 80%)” value (anesthetized guinea-pig; [2]) is reported as 1.40 µmol/kg. The “EDmax” value (anesthetized guinea-pig; [2]) was 2.81 µmol/kg, the “Emax % increase in +dP/dTmax” value (anesthetized guinea-pig; [2]) was 179% and the Maximum dose infused (anesthetized guinea-pig; [2]) was 12.6 µmol/kg. For the same compound, the “Lethal dose/ED80” value (anesthetized guinea-pig) was 7.8.
`C[C@]12CC[C@H]3[C@@H](CCC4C/C(=N\OCCN)[C@H](F)C[C@@]43C)[C@@H]1CC[C@@H]2O` (stereo partly drawn) [I-bf, (E)-3-(2-Aminoethoxyimino)-2α-fluoroandrostan-17β-ol fumarate] gave an IC50 [1] of 2400 nM.
`C[C@]12CC[C@H]3[C@@H](CCC4C/C(=N\O[C@@H]5CCNC5)[C@H](F)C[C@@]43C)[C@@H]1CC[C@@H]2O` (stereo partly drawn) [I-bg, (E)-3-[3-(R)-Pyrrolidinyl]oxyimino-2α-fluoroandrostan-17β-ol fumarate] showed an IC50 [1] of 840 nM.
For `C[C@]12C[C@@H](F)/C(=N/O[C@@H]3CCNC3)CC1CC[C@@H]1[C@@H]2CC[C@]2(C)C(=O)CC[C@@H]12.Cl` (stereo partly drawn) [I-bh, (E)-3-[3-(R)-Pyrrolidinyl]oxyimino-2α-fluoroandrostan-17-one hydrochloride], the IC50 [1] was 1100 nM, the Dead/treated (anesthetized guinea-pig; [2]) was 2/2 and the “ED80 (inotropic potency, dose increasing +dP/dTmax by 80%)” value (anesthetized guinea-pig; [2]) was 7.00 µmol/kg. The “EDmax” value (anesthetized guinea-pig; [2]) was 14.0 µmol/kg, the “Emax % increase in +dP/dTmax” value (anesthetized guinea-pig; [2]) was 210% and the Maximum dose infused (anesthetized guinea-pig; [2]) was 100.8 µmol/kg. The “Lethal dose/ED80” value (anesthetized guinea-pig) was 7.5.
`C[C@]12CC[C@H]3[C@@H](CC(=O)C4C/C(=N\O[C@@H]5CCNC5)[C@H](F)C[C@@]43C)[C@@H]1CC[C@@H]2O` (stereo partly drawn) [I-bi, (E)-3-[3-(R)-Pyrrolidinyl]oxyimino-2α-fluoro-17β-hydroxyandrostan-6-one fumarate] showed an IC50 [1] of 1300 nM.
`CO/N=C1\C[C@H]2[C@@H]3CC[C@H](O)[C@@]3(C)CC[C@@H]2[C@@]2(C)C[C@@H](F)/C(=N/O[C@@H]3CCNC3)CC12` (stereo partly drawn) [I-bk, (E)-3-[3-(R)-Pyrrolidinyl]oxyimino-2α-fluoro-6-(E)-methoxyiminoandrostan-17β-ol fumarate] gave an IC50 [1, 3] of 1900 nM.
With `C[C@]12CC/C(=N\O[C@@H]3CCNC3)[C@@H](F)C1CC[C@@H]1[C@@H]2CC[C@]2(C)C(=O)CC[C@@H]12` (stereo partly drawn) [I-bl, (E)-3-[3-(R)-Pyrrolidinyl]oxyimino-4α-fluoroandrostan-17-one fumarate] the IC50 [1] was 550 nM.
`C[C@]12CC/C(=N\O[C@@H]3CCNC3)[C@@H](O)C1CC[C@@H]1[C@@H]2CC[C@]2(C)C(=O)CC[C@@H]12` (stereo partly drawn) [I-bn, (E)-3-[3-(R)-Pyrrolidinyl]oxyimino-4α-hydroxyandrostan-17-one fumarate] showed an IC50 [1] of 2700 nM.
For `C[C@]12CC/C(=N\O[C@@H]3CCNC3)C3(CC3)C1=CC[C@@H]1[C@@H]2CC[C@]2(C)C(=O)CC[C@@H]12` [I-bo, (E)-3-[(3-(R)-Pyrrolidinyl)oxyimino]-4-spirocyclopropane-5-androsten-17-one fumarate], the IC50 [1, 3] was 690 nM.
`CC12CCC3C(CCC4C5(CCCC5)C(=NOC5CCNC5)CCC34C)C1CCC2O` [I-bq, (E)-3-[(3-(R)-Pyrrolidinyl)oxyimino]-4-spirocyclopentaneandrostan-17β-ol fumarate] showed an IC50 [1, 3] of 3100 nM.
Work on `CC12CCC3C(C(O)CC4C5(CCCC5)C(=NOC5CCNC5)CCC34C)C1CCC2O` [I-bs, (E)-3-[(3-(R)-Pyrrolidinyl)oxyimino]-4-spirocyclopentaneandrostan-7α,17β-diol fumarate] yielded an IC50 [1, 3] of 1100 nM.
For `CC(C)C1=C2CC[C@H]3[C@@H]4CC[C@H](O)[C@@]4(C)CC[C@@H]3[C@@]2(C)CC/C1=N\O[C@@H]1CCNC1` [I-bv, fumarate], the IC50 [1, 3] was 3900 nM.
`CC[C@@H]1/C(=N/O[C@@H]2CCNC2)CC[C@@]2(C)C1CC[C@H]1[C@@H]3CC[C@H](O)[C@@]3(C)CC[C@@H]12` (stereo partly drawn) [I-bw, (E)-3-[(3-(R)-Pyrrolidinyl)oxyimino]-4α-ethylandrostan-17β-ol fumarate] showed an IC50 [1] of 1800 nM.
`CC[C@H]1/C(=N/O[C@@H]2CCNC2)CC[C@@]2(C)C1[C@@H](O)C[C@@H]1[C@@H]2CC[C@]2(C)C(=O)CC[C@@H]12` (stereo partly drawn) [I-bx, (E)-3-[3-(R)-Pyrrolidinyl]oxyimino-4β-ethyl-6α-hydroxyandrostan-17-one hydrochloride] gave an IC50 [1] of 65 nM.
In the case of `CC1(C)/C(=N/O[C@@H]2CCNC2)CC[C@]2(C)[C@H]3CC[C@]4(C)[C@@H](O)CC[C@H]4[C@@H]3CC[C@@]12O` [I-by, (E)-3-[3-(R)-Pyrrolidinyl]oxyimino-4,4-dimethylandrostan-5α,17β-diol hydrochloride], the IC50 [1] is reported as 2200 nM.
